Results as given in ChEMBL document CHEMBL4725261, “Design, synthesis and evaluation of carbamate-linked uridyl-based inhibitors of human ST6Gal I” (Bioorg Med Chem, 2020).

Experiments:
[1] = molecular target: T1, Beta-galactoside alpha-2,6-sialyltransferase 1 (Homo sapiens) (UniProt P15907); assay: Inhibition of recombinant human N-terminal 6His-tagged ST6Gal-1 (Glu44 to Cys406 residues) assessed as CMP production at 10 uM using CMP-Neu5Ac as donar substrate and LacNAc as acceptor by CMP-Glo luminescence microplate reader assay relative to control
T1 sequence (whole entry): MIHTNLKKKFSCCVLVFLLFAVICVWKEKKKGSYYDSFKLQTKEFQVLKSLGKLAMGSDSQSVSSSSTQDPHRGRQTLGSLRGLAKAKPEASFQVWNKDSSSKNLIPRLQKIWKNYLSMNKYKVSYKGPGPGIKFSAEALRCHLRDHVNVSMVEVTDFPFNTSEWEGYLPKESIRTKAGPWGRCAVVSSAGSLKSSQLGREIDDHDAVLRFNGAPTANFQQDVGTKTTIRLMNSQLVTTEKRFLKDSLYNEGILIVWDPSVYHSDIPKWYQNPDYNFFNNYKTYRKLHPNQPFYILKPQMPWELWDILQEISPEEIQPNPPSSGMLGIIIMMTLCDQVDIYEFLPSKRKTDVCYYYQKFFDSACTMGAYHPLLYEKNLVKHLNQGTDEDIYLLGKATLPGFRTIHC

[2] = molecular target: T1, Beta-galactoside alpha-2,6-sialyltransferase 1 (Homo sapiens); assay: Binding affinity to recombinant human N-terminal 6His-tagged ST6Gal-1 (Glu44 to Cys406 residues) assessed as Km/Ki ratio

O=C(NC[C@H]1O[C@@H](n2ccc(=O)[nH]c2=O)[C@H](O)[C@@H]1O)OC(c1cccc(Oc2ccccc2)c1)P(=O)(O)O (stereo in doubt; 28a-(l))
inhibition [1]: 28.2%

O=C(NC[C@H]1O[C@@H](n2ccc(=O)[nH]c2=O)[C@H](O)[C@@H]1O)OC(c1cccc(Oc2ccccc2)c1)P(=O)(O)O (stereo in doubt; 28a-(s))
inhibition [1]: 19.9%

O=C(NC[C@H]1O[C@@H](n2ccc(=O)[nH]c2=O)[C@H](O)[C@@H]1O)OC(c1ccc(F)c(Oc2ccccc2)c1)P(=O)(O)O (stereo in doubt; 28b-(l))
inhibition [1]: 1.8%

O=C(NC[C@H]1O[C@@H](n2ccc(=O)[nH]c2=O)[C@H](O)[C@@H]1O)OC(c1ccc(F)c(Oc2ccccc2)c1)P(=O)(O)O (stereo in doubt; 28b-(s))
inhibition [1]: 1.1%

O=C(NC[C@H]1O[C@@H](n2ccc(=O)[nH]c2=O)[C@H](O)[C@@H]1O)OC(c1ccc(F)cc1)P(=O)(O)O (stereo in doubt; 28c-(l))
Ratio [2]: 32.5 | inhibition [1]: 58.9%

O=C(NC[C@H]1O[C@@H](n2ccc(=O)[nH]c2=O)[C@H](O)[C@@H]1O)OC(c1ccc(F)cc1)P(=O)(O)O (stereo in doubt; 28c-(s))
Ratio [2]: 0.1 | inhibition [1]: 34.6%

O=C(NC[C@H]1O[C@@H](n2ccc(=O)[nH]c2=O)[C@H](O)[C@@H]1O)OC(c1cccc(F)c1)P(=O)(O)O (stereo in doubt; 28d-(l))
inhibition [1]: 18%

O=C(NC[C@H]1O[C@@H](n2ccc(=O)[nH]c2=O)[C@H](O)[C@@H]1O)OC(c1cccc(F)c1)P(=O)(O)O (stereo in doubt; 28d-(s))
Ratio [2]: 1.9 | inhibition [1]: 36.6%

CCCOc1cccc(C(OC(=O)NC[C@H]2O[C@@H](n3ccc(=O)[nH]c3=O)[C@H](O)[C@@H]2O)P(=O)(O)O)c1 (stereo in doubt; 28e-(l))
Ratio [2]: 1.8 | inhibition [1]: 30.9%

CCCOc1cccc(C(OC(=O)NC[C@H]2O[C@@H](n3ccc(=O)[nH]c3=O)[C@H](O)[C@@H]2O)P(=O)(O)O)c1 (stereo in doubt; 28e-(s))
inhibition [1]: 7.2%

COc1cccc(C(OC(=O)NC[C@H]2O[C@@H](n3ccc(=O)[nH]c3=O)[C@H](O)[C@@H]2O)P(=O)(O)O)c1 (stereo in doubt; 28f-(l))
inhibition [1]: 23.6%

COc1cccc(C(OC(=O)NC[C@H]2O[C@@H](n3ccc(=O)[nH]c3=O)[C@H](O)[C@@H]2O)P(=O)(O)O)c1 (stereo in doubt; 28f-(s))
inhibition [1]: 29.8%

COc1ccc(C(OC(=O)NC[C@H]2O[C@@H](n3ccc(=O)[nH]c3=O)[C@H](O)[C@@H]2O)P(=O)(O)O)cc1 (stereo in doubt; 28g-(l))
inhibition [1]: 7.1%

COc1ccc(C(OC(=O)NC[C@H]2O[C@@H](n3ccc(=O)[nH]c3=O)[C@H](O)[C@@H]2O)P(=O)(O)O)cc1 (stereo in doubt; 28g-(s))
inhibition [1]: 18.1%

COc1ccc(C(OC(=O)NC[C@H]2O[C@@H](n3ccc(=O)[nH]c3=O)[C@H](O)[C@@H]2O)P(=O)(O)O)cc1OC1CCCC1 (stereo in doubt; 28h-(l))
inhibition [1]: 7.9%

COc1ccc(C(OC(=O)NC[C@H]2O[C@@H](n3ccc(=O)[nH]c3=O)[C@H](O)[C@@H]2O)P(=O)(O)O)cc1OC1CCCC1 (stereo in doubt; 28h-(s))
inhibition [1]: 12.7%

O=C(NC[C@H]1O[C@@H](n2ccc(=O)[nH]c2=O)[C@H](O)[C@@H]1O)OC(c1ccc(OC2CCCC2)cc1)P(=O)(O)O (stereo in doubt; 28i-(l))
Ratio [2]: 3.2 | inhibition [1]: 78%

O=C(NC[C@H]1O[C@@H](n2ccc(=O)[nH]c2=O)[C@H](O)[C@@H]1O)OC(c1ccc(OC2CCCC2)cc1)P(=O)(O)O (stereo in doubt; 28i-(s))
Ratio [2]: 0.7 | inhibition [1]: 19%

O=C(NC[C@H]1O[C@@H](n2ccc(=O)[nH]c2=O)[C@H](O)[C@@H]1O)OC(c1ccccc1)P(=O)(O)O (stereo in doubt; 28j-(l))
inhibition [1]: 15.2%

O=C(NC[C@H]1O[C@@H](n2ccc(=O)[nH]c2=O)[C@H](O)[C@@H]1O)OC(c1ccccc1)P(=O)(O)O (stereo in doubt; 28j-(s))
inhibition [1]: 7.1%

O=C(NC[C@H]1O[C@@H](n2ccc(=O)[nH]c2=O)[C@H](O)[C@@H]1O)OC(c1cc2ccccc2s1)P(=O)(O)O (stereo in doubt; 28k-(l))
inhibition [1]: 13.2%

O=C(NC[C@H]1O[C@@H](n2ccc(=O)[nH]c2=O)[C@H](O)[C@@H]1O)OC(c1cc2ccccc2s1)P(=O)(O)O (stereo in doubt; 28k-(s))
Ratio [2]: 4.4 | inhibition [1]: 66.4%

O=C(NC[C@H]1O[C@@H](n2ccc(=O)[nH]c2=O)[C@H](O)[C@@H]1O)OC(c1csc2ccccc12)P(=O)(O)O (stereo in doubt; 28l-(l))
inhibition [1]: 6.9%

O=C(NC[C@H]1O[C@@H](n2ccc(=O)[nH]c2=O)[C@H](O)[C@@H]1O)OC(c1csc2ccccc12)P(=O)(O)O (stereo in doubt; 28l-(s))
inhibition [1]: 5.9%

Nc1ccn([C@@H]2O[C@H](CNC(=O)OC(c3cccc(Oc4ccccc4)c3)P(=O)(O)O)[C@@H](O)[C@H]2O)c(=O)n1 (stereo in doubt; 30-(l))
inhibition [1]: 6.3%

Nc1ccn([C@@H]2O[C@H](CNC(=O)OC(c3cccc(Oc4ccccc4)c3)P(=O)(O)O)[C@@H](O)[C@H]2O)c(=O)n1 (stereo in doubt; 30-(s))
inhibition [1]: 2.2%
